Experimental data: patent USRE48164E1, “Compounds and compositions for delivering active agents” (EMISPHERE TECHNOLOGIES INC., priority 2007, dated 2020)

How the values were obtained:
[1] = tested on: male, Sprague-Dawley rats; assay: Oral Delivery of Insulin in Rats: whole blood glucose after oral gavage of insulin with delivery agent compound; assay type: in vivo, rat; conditions: sodium salt of delivery agent
Procedure: Human recombinant insulin (ICN Biomedicals, Aurora, Ohio) was dissolved in deionized water (ph˜6.5) to obtain stock insulin solutions having a concentration of 15 mg/ml. Sodium salts of the delivery agent compounds shown below in table 1 dissolved in deionized water to obtain a 200 mg/ml delivery agent solution. The free acid form of delivery agent as converted to the sodium salt by adding one equivalent of sodium hydroxide. Solutions were vortexted, sonicated, and heated. If necessary, additional sodium hydroxide was added in μl quantities to achieve uniform solubility in the delivery agent solutions. Solutions were adjusted to a pit of 3.5-8.5 by the addition of either hydrochloric acid or sodium hydroxide, as appropriate. The insulin stock solution was then added to the delivery agent solutions to obtain an administration solution ultimately having an insulin concentration of 0.5 mg/ml. After solubilization and drug addition, administration solutions were brought to a final volume by the addition of deionized water.
Insulin was administered to male, Sprague-Dawley rats either alone or in combination with delivery agent by oral gavage (PO). Rats, weighing 0.22 to 0.27 kg, were fasted for 18-24 hours prior to dosing. A Rusch 8 French catheter was cut to 11 cm in length and adapted to fit a 1 ml syringe. The syringe was filled with dosing solution and the catheter was inserted into the at mouth and fed down the esophagus (10.0 cm). The dosing solution was delivered by pressing the syringe plunger while holding the rat in an upright position. The doses of delivery agent and insulin were 200 mg/kg and […], respectively unless noted otherwise in Table 1. The dose volume was […].
Immediate to each blood sampling point, rats were exposed briefly (˜10 seconds) to carbon dioxide until prostrate. A 77-nun capillary tube was inserted into the retroorbital sinus. Typically, blood samples were collected prior to dosing (time=0) and at 15, 30, 45, and 60 minutes after dosing.
To determine the pharmacodynamic response, a hand-held glucometer (OneTouch Ultra, LifeScan—Johnson & Johnson, New Brunswick, N.J.) was used to measure whole blood glucose after administration of insulin or insulin and delivery agent. After discarding the first drop of blood, a small sample (˜5-10 μls) was touched to the glucometer test strip (OneTouch Ultra, LifeScan) and a blood glucose reading was generated by the meter. Samples at the times indicated below in Table 1 after dosing.

[2] = insulin 0.5 mg/kg, delivery agent 100 mg/kg, time period 30 minutes
[3] = insulin 0.5 mg/kg, delivery agent 100 mg/kg, time period 45 minutes
[4] = insulin 0.5 mg/kg, delivery agent 200 mg/kg, time period 30 minutes

Q: For `Cc1ccc(C)c(OCCCC(=O)O)c1` [Compound 1, 4-(2,5-Dimethylphenoxy)butyric acid], which “Average Glucose Reduction (5 rats/experiment)” value ([1]; insulin 0.05 mg/kg, delivery agent 200 mg/kg, time period 15 minutes) is on record?
A: The value was −16.1%.

Q: And the “Average Glucose Reduction (5 rats/experiment)” value ([1]; insulin 0.10 mg/kg, delivery agent 200 mg/kg, time period 30 minutes)?
A: The value was −13.0%.

Q: What about the “Average Glucose Reduction (5 rats/experiment)” value ([1]; insulin 0.3 mg/kg, delivery agent 200 mg/kg, time period 45 minutes) of the same compound?
A: Its value is −34.0%.

Q: And the “Average Glucose Reduction (5 rats/experiment)” value [1, 2]?
A: Its value is −31.4%.

Q: And the “Average Glucose Reduction (5 rats/experiment)” value [1, 3]?
A: The value was −60.6%.

Q: With `CC(=O)c1cccc(OCCCCCC(=O)O)c1` [Compound 2, 6-(3-Acetylphenoxy)hexanoic acid] as the compound, how does the “Average Glucose Reduction (5 rats/experiment)” value ([1]; insulin 0.5 mg/kg, delivery agent 25 mg/kg, time period 45 minutes) read?
A: Its value is −25.8%.

Q: And the “Average Glucose Reduction (5 rats/experiment)” value ([1]; insulin 0.5 mg/kg, delivery agent 50 mg/kg, time period 45 minutes)?
A: Its value is −30.2%.

Q: What about the “Average Glucose Reduction (5 rats/experiment)” value [1, 3] of the same compound?
A: The value was −50.8%.

Q: Which results are given for `Cc1cccc(OCCCC(=O)O)c1` [Compound 6]?
A: melting point: 53 to 54 °C; Average Glucose Reduction (5 rats/experiment) ([1]; insulin 0.25 mg/kg, delivery agent 100 mg/kg, time period 45 minutes): −30.9%; Average Glucose Reduction (5 rats/experiment) [1, 3]: −39.3%; Average Glucose Reduction (5 rats/experiment) ([1]; insulin 0.5 mg/kg, delivery agent 200 mg/kg, time period 60 minutes): −14.4%

Q: With `O=C(O)CCCOc1cccc(F)c1` [Compound 7, 4-(3-Fluorophenoxy)butyric acid] as the compound, how does the melting point read?
A: The melting point was 53 to 54 °C.

Q: Which melting point does the source give for `O=C(O)CCCOc1ccccc1Cl` [Compound 8, 4-(2-Chlorophenoxy)butanoic acid] here?
A: Its melting point is 85 to 87 °C.

Q: With `CC(C)(Oc1ccc(Cl)cc1)C(=O)NCCCCCC(=O)O` [Compound 10, 6-[2-(4-Chlorophenoxy)-2-methylpropionyl]-aminohexanoic acid] as the compound, how does the “Average Glucose Reduction (5 rats/experiment)” value [1, 4] read?
A: Its value is 2.5%.

Q: For `Cc1cc(F)ccc1OCCCC(=O)O` [Compound 11, 4-(4-Fluoro-2-methyl-phenoxy)-butyric aid], which “Average Glucose Reduction (5 rats/experiment)” value [1, 4] is on record?
A: The value was −63.7%.

Q: And the “Average Glucose Reduction (5 rats/experiment)” value ([1]; insulin 0.5 mg/kg, delivery agent 200 mg/kg, time period 45 minutes)?
A: The value was −78.0%.

Q: Which “Average Glucose Reduction (5 rats/experiment)” value ([1]; insulin 0.25 mg/kg, delivery agent 100 mg/kg, time period 30 minutes) does the source give for `Cc1ccc(F)c(OCCCC(=O)O)c1` [Compound 12, 4-(2-Fluoro-5-methyl-phenoxy)-butyric acid] here?
A: Its value is −41.0%.

Q: And the “Average Glucose Reduction (5 rats/experiment)” value ([1]; insulin 0.5 mg/kg, delivery agent 25 mg/kg, time period 60 minutes)?
A: The value was −13.1%.

Q: What about the “Average Glucose Reduction (5 rats/experiment)” value ([1]; insulin 0.5 mg/kg, delivery agent 50 mg/kg, time period 60 minutes) of the same compound?
A: The value was −25.7%.

Q: What about the “Average Glucose Reduction (5 rats/experiment)” value [1, 2] of the same compound?
A: The value was −47.9%.
